{"source": "patent US20200239530A1", "about": "“COMPOUNDS AND METHODS OF MODULATING PROTEIN DEGRADATION” (Vividion Therapeutics, Inc., priority 2017, published 2020)", "test_in_all_cases": "Cysteine liganding, probe competition", "format_in_all_cases": "binding", "key": {"[1]": {"biological_target": "T1, UniProt O14543 (Homo sapiens, UniProt O14543)", "T1 construct": "200 μL of lysate containing 5 mg/ml proteome was treated with 2 μL of 100× compound stock; endogenous in cells", "excerpt": "(§1) The following 96-well sample prep protocol was used for sample preparation."}, "[2]": {"biological_target": "T2, UniProt P63208 (Homo sapiens, UniProt P63208)", "T2 construct": "200 μL of lysate containing 5 mg/ml proteome was treated with 2 μL of 100× compound stock; endogenous in cells", "T2 sequence (P63208 whole entry, change not shown)": "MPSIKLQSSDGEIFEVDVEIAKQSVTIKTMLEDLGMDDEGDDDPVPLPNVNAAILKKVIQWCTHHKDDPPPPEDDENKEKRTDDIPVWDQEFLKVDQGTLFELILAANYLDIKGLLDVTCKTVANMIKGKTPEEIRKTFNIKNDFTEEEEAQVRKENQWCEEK", "conditions": "for percent_inhibition: 100 uM; for inhibition at 100 µM: read-out: percent_inhibition", "excerpt": "as §1"}, "[3]": {"biological_target": "T3, UniProt Q495X7 (Homo sapiens, UniProt Q495X7)", "T3 construct": "200 μL of lysate containing 5 mg/ml proteome was treated with 2 μL of 100× compound stock; endogenous in cells", "T3 sequence (Q495X7 1-471)": "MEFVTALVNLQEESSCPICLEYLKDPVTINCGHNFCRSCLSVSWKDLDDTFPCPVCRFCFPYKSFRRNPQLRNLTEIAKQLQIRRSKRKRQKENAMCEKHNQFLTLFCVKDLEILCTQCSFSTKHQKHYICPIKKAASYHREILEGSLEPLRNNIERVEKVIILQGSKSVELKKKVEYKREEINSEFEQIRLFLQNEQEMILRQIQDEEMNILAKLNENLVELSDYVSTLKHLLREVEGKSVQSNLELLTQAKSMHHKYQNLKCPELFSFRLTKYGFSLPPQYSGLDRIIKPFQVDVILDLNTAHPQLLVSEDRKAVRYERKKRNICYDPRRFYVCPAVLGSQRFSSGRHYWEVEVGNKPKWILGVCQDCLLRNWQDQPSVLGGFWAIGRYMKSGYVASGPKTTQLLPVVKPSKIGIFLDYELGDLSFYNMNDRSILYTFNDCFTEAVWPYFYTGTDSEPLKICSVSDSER", "excerpt": "as §1"}, "[4]": {"biological_target": "T4, UniProt Q86UD3 (Homo sapiens, UniProt Q86UD3)", "T4 construct": "Cells were resuspended in cold PBS on ice and sonicated with a probe sonicator to achieve lysis; endogenous in cells", "T4 sequence (Q86UD3 1-253)": "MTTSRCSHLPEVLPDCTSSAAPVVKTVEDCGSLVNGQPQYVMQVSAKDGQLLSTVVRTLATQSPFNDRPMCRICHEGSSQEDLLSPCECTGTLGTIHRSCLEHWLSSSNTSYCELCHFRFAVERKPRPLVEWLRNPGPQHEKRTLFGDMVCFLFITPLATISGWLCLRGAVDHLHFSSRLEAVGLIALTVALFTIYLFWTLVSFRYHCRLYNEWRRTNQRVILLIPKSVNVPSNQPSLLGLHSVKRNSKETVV", "excerpt": "as §1"}, "[5]": {"biological_target": "T5, UniProt Q96EH8 (Homo sapiens, UniProt Q96EH8)", "T5 construct": "Cells were resuspended in cold PBS on ice and sonicated with a probe sonicator to achieve lysis; endogenous in cells", "T5 sequence (Q96EH8 1-262)": "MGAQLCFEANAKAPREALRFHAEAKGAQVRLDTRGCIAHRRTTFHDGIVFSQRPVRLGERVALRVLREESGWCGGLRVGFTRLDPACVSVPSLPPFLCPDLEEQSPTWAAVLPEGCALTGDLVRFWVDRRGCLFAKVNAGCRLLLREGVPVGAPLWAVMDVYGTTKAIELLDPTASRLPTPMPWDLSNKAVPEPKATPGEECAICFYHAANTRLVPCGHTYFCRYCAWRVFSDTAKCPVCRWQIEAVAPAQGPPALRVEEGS", "conditions": "for inhibition at 500 µM: read-out: percent inhibition", "excerpt": "as §1"}, "[6]": {"biological_target": "T6, UniProt Q9BVG3 (Homo sapiens, UniProt Q9BVG3)", "T6 construct": "200 μL of lysate containing 5 mg/ml proteome was treated with 2 μL of 100× compound stock; endogenous in cells", "excerpt": "as §1"}, "[7]": {"biological_target": "T7, UniProt Q9BWF2 (Homo sapiens, UniProt Q9BWF2)", "T7 construct": "200 μL of lysate containing 5 mg/ml proteome was treated with 2 μL of 100× compound stock; endogenous in cells", "T7 sequence (Q9BWF2 1-469)": "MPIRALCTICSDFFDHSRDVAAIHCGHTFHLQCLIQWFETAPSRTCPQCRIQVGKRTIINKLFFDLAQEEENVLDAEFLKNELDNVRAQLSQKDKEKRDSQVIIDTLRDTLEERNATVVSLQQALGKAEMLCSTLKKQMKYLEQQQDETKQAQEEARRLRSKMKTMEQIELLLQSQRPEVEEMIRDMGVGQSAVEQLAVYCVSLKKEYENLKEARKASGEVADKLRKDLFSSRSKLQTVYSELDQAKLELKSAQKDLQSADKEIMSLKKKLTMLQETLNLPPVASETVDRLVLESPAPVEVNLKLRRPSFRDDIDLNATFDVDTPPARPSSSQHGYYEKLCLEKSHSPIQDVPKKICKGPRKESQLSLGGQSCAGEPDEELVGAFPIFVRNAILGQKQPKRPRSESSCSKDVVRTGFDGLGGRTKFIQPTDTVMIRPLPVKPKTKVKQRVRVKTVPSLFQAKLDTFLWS", "excerpt": "as §1"}, "[8]": {"biological_target": "T8, UniProt Q9Y2Z0 (Homo sapiens, UniProt Q9Y2Z0)", "T8 construct": "200 μL of lysate containing 5 mg/ml proteome was treated with 2 μL of 100× compound stock; endogenous in cells", "T8 sequence (Q9Y2Z0 whole entry, change not shown)": "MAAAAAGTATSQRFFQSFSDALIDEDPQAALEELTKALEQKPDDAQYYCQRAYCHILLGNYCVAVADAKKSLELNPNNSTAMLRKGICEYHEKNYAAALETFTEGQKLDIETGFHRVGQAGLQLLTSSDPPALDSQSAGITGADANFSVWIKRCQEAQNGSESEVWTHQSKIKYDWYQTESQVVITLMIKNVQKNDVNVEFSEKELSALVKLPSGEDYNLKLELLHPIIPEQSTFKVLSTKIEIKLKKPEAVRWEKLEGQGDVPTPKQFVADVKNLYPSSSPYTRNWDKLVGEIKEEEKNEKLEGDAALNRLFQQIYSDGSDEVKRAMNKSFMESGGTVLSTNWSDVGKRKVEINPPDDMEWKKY", "conditions": "read-out: percent_inhibition", "excerpt": "as §1"}, "[9]": {"biological_target": "T9, UniProt P49792 (Homo sapiens, UniProt P49792)", "T9 construct": "200 μL of lysate containing 5 mg/ml proteome was treated with 2 μL of 100× compound stock; endogenous in cells", "T9 sequence (P49792 whole entry, change not shown)": "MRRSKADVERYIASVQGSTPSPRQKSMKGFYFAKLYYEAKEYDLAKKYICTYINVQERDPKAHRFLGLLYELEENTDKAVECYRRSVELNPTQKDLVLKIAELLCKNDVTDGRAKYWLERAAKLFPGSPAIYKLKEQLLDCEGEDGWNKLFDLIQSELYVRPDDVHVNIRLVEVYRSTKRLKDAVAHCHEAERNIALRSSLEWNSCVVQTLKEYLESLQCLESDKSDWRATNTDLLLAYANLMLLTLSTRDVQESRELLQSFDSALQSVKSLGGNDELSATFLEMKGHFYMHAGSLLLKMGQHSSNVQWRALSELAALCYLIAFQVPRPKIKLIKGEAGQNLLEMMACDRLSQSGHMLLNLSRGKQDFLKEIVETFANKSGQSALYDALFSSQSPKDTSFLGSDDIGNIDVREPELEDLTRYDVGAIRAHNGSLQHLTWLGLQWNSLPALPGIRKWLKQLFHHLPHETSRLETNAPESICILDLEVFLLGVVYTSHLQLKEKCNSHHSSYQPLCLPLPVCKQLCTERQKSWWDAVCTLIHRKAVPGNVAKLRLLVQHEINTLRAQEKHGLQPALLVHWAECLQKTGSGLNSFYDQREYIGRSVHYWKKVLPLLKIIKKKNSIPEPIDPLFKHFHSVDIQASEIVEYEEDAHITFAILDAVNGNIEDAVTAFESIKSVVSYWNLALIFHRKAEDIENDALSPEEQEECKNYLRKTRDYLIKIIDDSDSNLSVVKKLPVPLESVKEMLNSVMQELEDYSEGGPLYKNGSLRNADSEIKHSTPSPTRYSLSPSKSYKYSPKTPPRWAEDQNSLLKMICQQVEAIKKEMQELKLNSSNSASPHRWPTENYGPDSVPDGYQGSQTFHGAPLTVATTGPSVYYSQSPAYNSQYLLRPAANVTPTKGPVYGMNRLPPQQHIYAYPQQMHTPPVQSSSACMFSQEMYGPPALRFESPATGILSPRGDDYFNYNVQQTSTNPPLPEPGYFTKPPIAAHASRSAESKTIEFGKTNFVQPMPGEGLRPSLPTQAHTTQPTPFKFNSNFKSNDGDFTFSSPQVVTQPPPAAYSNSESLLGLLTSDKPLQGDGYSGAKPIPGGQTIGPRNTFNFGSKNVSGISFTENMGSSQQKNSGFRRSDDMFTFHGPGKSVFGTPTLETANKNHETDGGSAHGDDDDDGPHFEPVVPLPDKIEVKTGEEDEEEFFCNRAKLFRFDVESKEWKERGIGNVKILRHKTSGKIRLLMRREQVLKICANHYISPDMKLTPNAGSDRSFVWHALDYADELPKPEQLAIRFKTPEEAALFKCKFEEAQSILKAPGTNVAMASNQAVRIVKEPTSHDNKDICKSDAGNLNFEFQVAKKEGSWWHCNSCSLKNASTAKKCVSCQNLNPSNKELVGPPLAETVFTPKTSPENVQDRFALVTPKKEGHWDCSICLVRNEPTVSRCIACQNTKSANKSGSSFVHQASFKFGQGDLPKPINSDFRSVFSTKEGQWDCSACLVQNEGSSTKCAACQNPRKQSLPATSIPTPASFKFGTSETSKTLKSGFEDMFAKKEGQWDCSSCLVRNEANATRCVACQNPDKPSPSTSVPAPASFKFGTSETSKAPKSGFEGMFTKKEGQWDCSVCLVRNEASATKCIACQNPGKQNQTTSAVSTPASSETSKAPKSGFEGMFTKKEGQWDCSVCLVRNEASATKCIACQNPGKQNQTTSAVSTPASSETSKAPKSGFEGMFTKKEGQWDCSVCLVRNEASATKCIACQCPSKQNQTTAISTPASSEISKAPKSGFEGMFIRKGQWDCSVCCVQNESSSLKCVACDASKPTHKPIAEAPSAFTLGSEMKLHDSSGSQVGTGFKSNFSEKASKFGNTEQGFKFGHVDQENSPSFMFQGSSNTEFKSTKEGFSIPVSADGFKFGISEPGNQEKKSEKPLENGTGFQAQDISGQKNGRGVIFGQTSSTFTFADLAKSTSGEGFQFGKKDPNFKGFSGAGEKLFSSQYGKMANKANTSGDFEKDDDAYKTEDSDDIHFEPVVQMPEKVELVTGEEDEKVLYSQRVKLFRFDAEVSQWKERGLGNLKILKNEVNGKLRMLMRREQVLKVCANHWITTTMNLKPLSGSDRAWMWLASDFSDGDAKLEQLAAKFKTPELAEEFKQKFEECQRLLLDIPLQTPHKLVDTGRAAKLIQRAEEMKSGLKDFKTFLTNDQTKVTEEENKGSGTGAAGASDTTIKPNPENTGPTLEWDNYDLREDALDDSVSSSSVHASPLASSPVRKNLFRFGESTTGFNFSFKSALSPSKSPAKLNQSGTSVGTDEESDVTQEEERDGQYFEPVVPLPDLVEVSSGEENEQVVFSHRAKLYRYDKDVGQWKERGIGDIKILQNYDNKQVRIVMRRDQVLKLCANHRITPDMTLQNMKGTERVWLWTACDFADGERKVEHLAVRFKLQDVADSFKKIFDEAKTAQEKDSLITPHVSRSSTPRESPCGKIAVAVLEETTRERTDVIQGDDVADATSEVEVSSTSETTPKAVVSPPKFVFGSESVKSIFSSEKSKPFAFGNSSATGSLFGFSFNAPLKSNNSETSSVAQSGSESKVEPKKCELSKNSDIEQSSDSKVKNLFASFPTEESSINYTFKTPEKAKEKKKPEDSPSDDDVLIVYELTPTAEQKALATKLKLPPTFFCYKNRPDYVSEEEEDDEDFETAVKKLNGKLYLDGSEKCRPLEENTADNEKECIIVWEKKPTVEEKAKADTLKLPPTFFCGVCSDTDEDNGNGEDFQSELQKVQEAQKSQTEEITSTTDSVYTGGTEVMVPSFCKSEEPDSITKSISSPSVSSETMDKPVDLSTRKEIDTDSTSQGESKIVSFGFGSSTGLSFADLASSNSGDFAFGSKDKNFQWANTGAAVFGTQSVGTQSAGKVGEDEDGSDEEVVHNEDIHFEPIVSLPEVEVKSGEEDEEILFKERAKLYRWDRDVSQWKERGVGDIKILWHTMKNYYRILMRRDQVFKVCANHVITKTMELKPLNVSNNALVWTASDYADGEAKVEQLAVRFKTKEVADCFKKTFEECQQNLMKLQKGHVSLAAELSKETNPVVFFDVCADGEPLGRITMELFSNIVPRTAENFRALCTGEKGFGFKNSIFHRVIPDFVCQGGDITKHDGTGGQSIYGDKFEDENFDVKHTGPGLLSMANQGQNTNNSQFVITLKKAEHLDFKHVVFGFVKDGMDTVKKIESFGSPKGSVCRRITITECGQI", "conditions": "500 uM", "excerpt": "as §1"}, "[10]": {"biological_target": "T10, UniProt Q13049 (Homo sapiens, UniProt Q13049)", "T10 construct": "200 μL of lysate containing 5 mg/ml proteome was treated with 2 μL of 100× compound stock; endogenous in cells", "T10 sequence (Q13049 whole entry, change not shown)": "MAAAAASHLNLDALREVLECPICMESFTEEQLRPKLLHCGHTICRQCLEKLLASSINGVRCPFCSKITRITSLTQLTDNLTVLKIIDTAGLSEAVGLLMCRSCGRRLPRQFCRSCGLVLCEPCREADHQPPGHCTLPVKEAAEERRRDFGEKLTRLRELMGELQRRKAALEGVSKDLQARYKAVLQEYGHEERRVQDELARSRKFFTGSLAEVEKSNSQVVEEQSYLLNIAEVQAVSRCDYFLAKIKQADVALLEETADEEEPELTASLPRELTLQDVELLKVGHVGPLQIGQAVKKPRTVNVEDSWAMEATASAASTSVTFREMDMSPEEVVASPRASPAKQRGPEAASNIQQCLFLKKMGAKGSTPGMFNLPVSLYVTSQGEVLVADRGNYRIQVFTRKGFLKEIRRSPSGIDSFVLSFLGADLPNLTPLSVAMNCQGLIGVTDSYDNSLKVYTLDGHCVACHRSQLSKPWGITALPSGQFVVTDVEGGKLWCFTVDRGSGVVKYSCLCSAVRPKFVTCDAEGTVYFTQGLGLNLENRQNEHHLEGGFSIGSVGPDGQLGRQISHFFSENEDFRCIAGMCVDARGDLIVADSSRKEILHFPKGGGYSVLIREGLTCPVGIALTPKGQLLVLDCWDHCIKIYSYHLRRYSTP", "excerpt": "as §1"}, "[11]": {"biological_target": "T11, UniProt Q13233 (Homo sapiens, UniProt Q13233)", "T11 construct": "Cells were resuspended in cold PBS on ice and sonicated with a probe sonicator to achieve lysis; endogenous in cells", "excerpt": "as §1"}, "[12]": {"biological_target": "T12, UniProt Q8IY92 (Homo sapiens, UniProt Q8IY92)", "T12 construct": "200 μL of lysate containing 5 mg/ml proteome was treated with 2 μL of 100× compound stock; endogenous in cells", "excerpt": "as §1"}, "[13]": {"biological_target": "T13, UniProt Q9HCE7 (Homo sapiens, UniProt Q9HCE7)", "T13 construct": "200 μL of lysate containing 5 mg/ml proteome was treated with 2 μL of 100× compound stock; endogenous in cells", "excerpt": "as §1"}, "[14]": {"biological_target": "T14, UniProt Q9UJ41 (Homo sapiens, UniProt Q9UJ41)", "T14 construct": "200 μL of lysate containing 5 mg/ml proteome was treated with 2 μL of 100× compound stock; endogenous in cells", "T14 sequence (Q9UJ41 whole entry, change not shown)": "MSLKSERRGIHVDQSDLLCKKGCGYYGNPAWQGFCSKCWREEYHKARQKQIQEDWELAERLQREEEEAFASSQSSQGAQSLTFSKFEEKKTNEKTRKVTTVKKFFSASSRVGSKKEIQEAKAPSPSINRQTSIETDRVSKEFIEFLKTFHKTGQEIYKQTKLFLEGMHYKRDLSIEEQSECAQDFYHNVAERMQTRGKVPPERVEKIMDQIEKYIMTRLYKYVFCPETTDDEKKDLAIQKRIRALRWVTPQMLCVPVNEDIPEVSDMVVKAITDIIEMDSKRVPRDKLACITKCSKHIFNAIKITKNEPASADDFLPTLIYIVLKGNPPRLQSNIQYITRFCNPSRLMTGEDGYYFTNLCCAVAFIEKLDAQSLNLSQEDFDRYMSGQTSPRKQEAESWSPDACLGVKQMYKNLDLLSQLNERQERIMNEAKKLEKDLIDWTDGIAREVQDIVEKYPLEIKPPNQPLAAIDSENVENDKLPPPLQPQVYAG", "excerpt": "as §1"}, "[15]": {"conditions": "100 uM, read-out: KB02_100 uM_percent_inhibition"}, "[16]": {"conditions": "500 uM, read-out: KB02_500 uM_percent_inhibition"}, "[17]": {"conditions": "read-out: KB05_100 uM_percent_inhibition"}}, "note": "Read-outs that look alike come from different tables or passages of the source."}
{"smiles": "COc1ccc2c(c1)CCCN2C(=O)CCl", "note": "[KB02]", "values": [{"measurement": "inhibition at 100 µM", "setting": "[1]; read-out: percent_inhibition", "result": 40, "unit": "%"}, {"measurement": "percent_inhibition", "setting": "[2]", "result": 18, "unit": "%"}, {"measurement": "inhibition at 100 µM", "setting": "[2]", "result": 13, "unit": "%"}, {"measurement": "inhibition at 100 µM", "setting": "[3]; [15]", "result": 15, "unit": "%"}, {"measurement": "inhibition at 500 µM", "setting": "[3]; [16]", "result": 44, "unit": "%"}, {"measurement": "inhibition at 100 µM", "setting": "[4]; 100 uM, read-out: percent inhibition", "result": 34, "unit": "%"}, {"measurement": "inhibition at 500 µM", "setting": "[4]; 500 uM, read-out: percent inhibition", "result": 77, "unit": "%"}, {"measurement": "percent inhibition", "setting": "[5]; 500 uM", "result": 54, "unit": "%"}, {"measurement": "inhibition at 500 µM", "setting": "[5]", "result": 40, "unit": "%"}, {"measurement": "inhibition at 100 µM", "setting": "[6]; [15]", "result": 1, "unit": "%"}, {"measurement": "inhibition at 100 µM", "setting": "[7]; [15]", "result": 10, "unit": "%"}, {"measurement": "KB02_500 uM_percent_inhibition", "setting": "[7]; 500 uM", "result": 52, "unit": "%"}, {"measurement": "inhibition at 500 µM", "setting": "[7]; [16]", "result": 36, "unit": "%"}, {"measurement": "inhibition at 100 µM", "setting": "[8]", "result": 20, "unit": "%"}]}
{"smiles": "C=CC(=O)N(c1ccccc1)c1ccc(Br)cc1", "note": "[KB05]", "values": [{"measurement": "KB05_500 uM_percent_inhibition", "setting": "[9]", "result": 75, "unit": "%"}, {"measurement": "percent_inhibition", "setting": "[2]", "result": 14, "unit": "%"}, {"measurement": "inhibition at 100 µM", "setting": "[2]", "result": 15, "unit": "%"}, {"measurement": "inhibition at 100 µM", "setting": "[10]; [17]", "result": 5, "unit": "%"}, {"measurement": "inhibition at 100 µM", "setting": "[11]; read-out: percent inhibition", "result": 31, "unit": "%"}, {"measurement": "inhibition at 100 µM", "setting": "[12]; read-out: percent_inhibition", "result": 10, "unit": "%"}, {"measurement": "inhibition at 500 µM", "setting": "[5]", "result": 44, "unit": "%"}, {"measurement": "KB05_500 uM_percent_inhibition", "setting": "[7]; 500 uM", "result": 29, "unit": "%"}, {"measurement": "inhibition at 500 µM", "setting": "[7]; 500 uM, read-out: KB05_500 uM_percent_inhibition", "result": 22, "unit": "%"}, {"measurement": "inhibition at 100 µM", "setting": "[13]; read-out: percent_inhibition", "result": 52, "unit": "%"}, {"measurement": "inhibition at 100 µM", "setting": "[14]; [17]", "result": 33, "unit": "%"}, {"measurement": "inhibition at 100 µM", "setting": "[8]", "result": 31, "unit": "%"}]}
{"smiles": "O=C(CCl)Nc1cc(C(F)(F)F)cc(C(F)(F)F)c1", "note": "[KBO3]", "values": [{"measurement": "percent_inhibition", "setting": "[1]; 100 uM", "result": 91, "unit": "%"}, {"measurement": "KB03_500 uM_percent_inhibition", "setting": "[9]", "result": 79, "unit": "%"}, {"measurement": "KB03_100 uM_percent_inhibition", "setting": "[10]; 100 uM", "result": 14, "unit": "%"}, {"measurement": "percent inhibition", "setting": "[11]; 100 uM", "result": 19, "unit": "%"}, {"measurement": "KB03_100 uM_percent_inhibition", "setting": "[3]; 100 uM", "result": 27, "unit": "%"}, {"measurement": "KB03_500 uM_percent_inhibition", "setting": "[3]; 500 uM", "result": 43, "unit": "%"}, {"measurement": "percent inhibition", "setting": "[4]; 500 uM", "result": 66, "unit": "%"}, {"measurement": "percent_inhibition", "setting": "[12]; 100 uM", "result": 8, "unit": "%"}, {"measurement": "KB03_500 uM_percent_inhibition", "setting": "[6]; 500 uM", "result": 59, "unit": "%"}, {"measurement": "percent_inhibition", "setting": "[13]; 100 uM", "result": 71, "unit": "%"}, {"measurement": "KB03_100 uM_percent_inhibition", "setting": "[14]; 100 uM", "result": 20, "unit": "%"}]}
